{"source": "patent US7615554B2", "about": "“Erastin and erastin binding proteins, and uses thereof” (Prolexys Pharmaceuticals, Inc., priority 2005, dated 2009)", "type_in_all_cases": "cell-based, human", "key": {"[1]": {"test_system": "BJ primary cells", "assay": "Calcein AM viability assay, BJ cells", "details": "16-point two-fold dilution", "description": "(§1) Described here is work carried out to identify compounds with increased potency or activity in the presence of hTERT, LT, ST, E6, E7 or RAS^V12. Although the work described herein made use of hTERT, LT, ST, E6, E7 and RAS^V12 as transforming genes, future studies can make use of a wide variety of cancer-associated alleles using this methodology in order to define the signaling networks that involve many oncogenes and tumor suppressors. […] Cell viability was measured using the dye calcein acetoxymethyl ester (calcein AM) (Wang et al., 1993, Hum. Immunol. 37, 264-270), which is a non-fluorescent compound that freely diffuses into cells. […]\n(§2) Calcein acetoxylmethyl ester (AM) is a cell membrane-permeable, non-fluorescent compound that is cleaved by intracellular esterases to form the anionic, cell-impermeable, fluorescent compound calcein. […] Total fluorescence intensity in each well was recorded on a Packard Fusion platereader, and converted to a percent inhibition of signal by subtracting the instrument background and dividing by the average signal obtained when cells were not treated with any compound. […]\n(§3) Mean RFU (relative fluorescence units) for untreated cells was calculated by averaging columns 1, 2, and 23 (wells with cells but lacking compounds). The calcein background was calculated by averaging column 24 (wells with calcein, but lacking cells). […]"}, "[2]": {"test_system": "BJ-TERT/LT/ST cells", "assay": "Calcein AM viability assay, BJ-TERT/LT/ST cells", "details": "16-point two-fold dilution", "description": "as §1, §2, §3"}, "[3]": {"test_system": "BJ-TERT/LT/ST/RAS^V12 tumorigenic cells", "assay": "Calcein AM viability assay, BJ-TERT/LT/ST/RAS^V12 cells", "details": "BJ-TERT/LT/ST/Ras^v12; 16-point two-fold dilution", "description": "as §1, with “suppressors. Engineered cell lines with these genetic elements were used to screen 23,550 compounds, including 20,000 compounds from a combinatorial library, 1,990 compounds from the National Cancer Institute diversity collection, and 1,540 biologically active known compounds that were selected and purchased by Applicant and formatted into a screenable collection.” for “suppressors.”\nas §2\nMean RFU (relative fluorescence units) for untreated cells was calculated by averaging columns 1, 2, and 23 (wells with cells but lacking compounds). The calcein background was calculated by averaging column 24 (wells with calcein, but lacking cells). Percentage inhibition of each well was calculated as [1−(RFU−calcein control)/(untreated cell−calcein control)*100]. […]"}, "[4]": {"test_system": "BJ-TERT/LT/RAS^V12/ST cells", "assay": "Calcein AM viability assay, BJ-TERT/LT/RAS^V12/ST cells", "details": "16-point two-fold dilution", "description": "as §1, §2, §3"}, "[5]": {"test_system": "TIP5-TERT cells", "assay": "Calcein AM viability assay, TIP5-TERT cells", "details": "16-point two-fold dilution", "description": "as §1, §2, §3"}, "[6]": {"test_system": "TIP5-TERT/LT cells", "assay": "Calcein AM viability assay, TIP5-TERT/LT cells", "details": "16-point two-fold dilution", "description": "as §1, §2, §3"}, "[7]": {"test_system": "TIP5-TERT/LT/ST/Ras^v12 cells", "assay": "Calcein AM viability assay, TIP5-TERT/LT/ST/Ras^v12 cells", "details": "16-point two-fold dilution", "description": "as §1, §2, §3"}, "[8]": {"test_system": "TIP5-TERT/E6E7 cells", "assay": "Calcein AM viability assay, TIP5-TERT/E6E7 cells", "details": "16-point two-fold dilution", "description": "as §1, §2, §3"}, "[9]": {"test_system": "TIP5-TERT/E6E7/ST cells", "assay": "Calcein AM viability assay, TIP5-TERT/E6E7/ST cells", "details": "16-point two-fold dilution", "description": "as §1, §2, §3"}, "[10]": {"test_system": "TIP5-TERT/E6E7/ST/Ras^v12 cells", "assay": "Calcein AM viability assay, TIP5-TERT/E6E7/ST/Ras^v12 cells", "details": "16-point two-fold dilution", "description": "as §1, §2, §3"}, "[11]": {"test_system": "engineered cell lines", "assay": "Selectivity across the engineered cell lines (calcein AM IC50 ratios)", "details": "from selectivity ratio for each subsequent pair of cell lines in a series", "description": "To calculate this selectivity score between two cell lines, the IC50 for a compound in one cell line was divided by the IC50 for the same compound in a second cell line. […] The “tumor selectivity score” was calculated for each compound, by dividing the IC50 value for the compound in the parental, primary BJ cells by the IC50 value for the compound in engineered BJ-TERTALT/ST/RAS^V12 cells, containing all four genetic elements required to create tumorigenic cells (Table 1).\nApplicants sought to determine the genetic basis of selectivity for each compound. That is, for each compound, they attempted to define the gene or combination of genes responsible for rendering cells sensitive to the compound (Table 1).\nThe IC50 in primary BJ cells was divided by the IC50 in BJ-TERT/LT/ST/RAS^V12 tumorigenic cells to obtain a tumor selectivity ratio for each compound. The compound selectivity for each genetic element was determined by calculating the selectivity ratio for each subsequent pair of cell lines in a series."}}, "data": [{"smiles": "Cc1c2ccccc2c(CSC(=N)N)c2ccccc12.Cl", "note": "[NSC146109]", "values": [{"measurement": "concentration required to achieve 50% inhibition of calcein AM staining (IC50)", "setting": "[1]", "value": ">5", "unit": "µg/mL"}, {"measurement": "concentration required to achieve 50% inhibition of calcein AM staining (IC50)", "setting": "[2]", "value": 2.5, "unit": "µg/mL"}, {"measurement": "concentration required to achieve 50% inhibition of calcein AM staining (IC50)", "setting": "[3]", "value": 2.5, "unit": "µg/mL"}, {"measurement": "concentration required to achieve 50% inhibition of calcein AM staining (IC50)", "setting": "[4]", "value": 2.5, "unit": "µg/mL"}, {"measurement": "concentration required to achieve 50% inhibition of calcein AM staining (IC50)", "setting": "[5]", "value": ">5", "unit": "µg/mL"}, {"measurement": "concentration required to achieve 50% inhibition of calcein AM staining (IC50)", "setting": "[6]", "value": ">5", "unit": "µg/mL"}, {"measurement": "concentration required to achieve 50% inhibition of calcein AM staining (IC50)", "setting": "[7]", "value": 2.5, "unit": "µg/mL"}, {"measurement": "concentration required to achieve 50% inhibition of calcein AM staining (IC50)", "setting": "[8]", "value": 2.5, "unit": "µg/mL"}, {"measurement": "concentration required to achieve 50% inhibition of calcein AM staining (IC50)", "setting": "[9]", "value": 2.5, "unit": "µg/mL"}, {"measurement": "concentration required to achieve 50% inhibition of calcein AM staining (IC50)", "setting": "[10]", "value": 2.5, "unit": "µg/mL"}, {"measurement": "Genetic basis of Selectivity", "setting": "[11]", "value": "non-specific"}]}]}
